Values after ≈ are worked out from the molar mass of the structure shown.

As a reminder, the kinetic solubility is solubility judged after dilution from a stock solution rather than from solid.

For the data set the following is noted: buffer; pH 7.4; 200.0 µM.
For `CC(NC(=O)C(c1ccccc1)c1ccccc1)C(=O)N1CCCCC1` (configuration not stated), the solubility (kinetic) was 49.3 µg/mL (≈ 141 µM). The compound `COc1cccc(OCC(=O)NC2CCCCCC2)c1` came in with a solubility (kinetic) greater than 41.6 µg/mL. Compound `COc1ccc(C(=O)NC2CCCCCCC2)cc1OC` came in with a solubility (kinetic) of 15.2 µg/mL (≈ 52.2 µM).

Consider `CNC(=O)COc1ccc(S(=O)(=O)N2CCCC2)cc1`, for which the kinetic solubility came to 40.9 µg/mL (≈ 137 µM).

In turn, `O=C(/C=C/c1ccccc1)Nc1ccc(NC(=O)c2cccs2)cc1` yielded a kinetic solubility of less than 0.4 µg/mL. Then `CN1c2ccccc2C(=O)/C(=C\Nc2ccc(F)cc2F)S1(=O)=O`, with 1 µg/mL (≈ 2.85 µM). Take `OCCSc1nc(N2CCOCC2)nc(N2CCOCC2)n1`: the solubility (kinetic) is greater than 49.1 µg/mL. As to `CC1(C(=O)NC2CCCCC2)CCC(=O)N1Cc1ccc2c(c1)OCO2` (configuration not stated), the kinetic solubility amounted to 44.4 µg/mL (≈ 124 µM). In the case of `Cc1ccc(CNC(=O)c2cc(Cl)cc(Cl)c2)n1C`, the kinetic solubility is 11.1 µg/mL (≈ 37.4 µM). For `S=c1[nH]nc(CSCCOc2ccc(Cl)cc2Cl)o1` the value was greater than 50.6 µg/mL; for `COCc1cc(=O)[nH]c(/N=C(\N)Nc2c(F)cccc2F)n1`, 40.6 µg/mL (≈ 131 µM); for `O=S(=O)(Nc1ccc(Br)cc1)N1CCOCC1`, greater than 48.2 µg/mL. Compound `CN1CCN(Cc2cccc3ncccc23)CC1CCO` (configuration not stated) gave a solubility (kinetic) greater than 42.8 µg/mL. `CCNC(=O)NC(=O)C(C)OC(=O)c1ccc(SC)cc1OC` (configuration not stated): the kinetic solubility is greater than 51.1 µg/mL. Turning to `Cc1cccc(NS(=O)(=O)c2ccc3c(c2)CCC(=O)N3)c1`, the solubility (kinetic) is greater than 47.5 µg/mL. For `CCOC(=O)CC(NC(=O)c1cccs1)c1ccc(C)cc1` (configuration not stated) the value was greater than 47.6 µg/mL; for `COc1ccc(NC(=O)C2=NN(C3CCS(=O)(=O)C3)C(=O)CC2)cc1S(N)(=O)=O` (configuration not stated), greater than 66.7 µg/mL; for `CCN(CC)CC.COc1ccc(-n2c(=S)[nH]c3c(sc(=S)n3-c3ccccc3)c2=O)c(OC)c1`, greater than 64.4 µg/mL. Compound `O=C(c1cc(Br)c(Br)s1)N1CCc2ccccc2C1` displayed a solubility (kinetic) of 7 µg/mL (≈ 17.5 µM). For `Cc1ccc(S(=O)(=O)N2CCOCC2)cc1NC(=O)COC(=O)c1cncc(Br)c1` the value was greater than 74.8 µg/mL; for `COn1c(-c2ccc(Cl)cc2)nc2ncccc21`, greater than 39 µg/mL; for `O=S(=O)(c1ccccc1C(F)(F)F)N1CCN(c2ncnc3sccc23)CC1`, 4.6 µg/mL (≈ 10.7 µM). On to `O=C(Nc1ccc(N2CCOCC2)cc1)c1ccc([N+](=O)[O-])o1`, for which the kinetic solubility came out at 13.2 µg/mL (≈ 41.6 µM). For `CC1CCCCC1NC(=O)c1ccco1` (configuration not stated), the kinetic solubility is greater than 31.1 µg/mL. For `COc1ccc(-c2noc(=O)n2Cc2ccccc2F)cc1` the value was 29.6 µg/mL (≈ 98.6 µM). With `O=[N+]([O-])c1ccc(NCc2ccc3c(c2)OCO3)cc1`, the kinetic solubility was less than 0.3 µg/mL.

Compound `COc1ccccc1OCC(O)CN1CCN(CC(=O)Nc2c(C)cccc2C)CC1.Cl` (configuration not stated) registered a solubility (kinetic) greater than 75.1 µg/mL. The compound `COc1ccccc1Nc1nc(-c2cccnc2)cs1` had a solubility (kinetic) of 1 µg/mL (≈ 3.53 µM). For `O=C(NC1CCNCC1)C1CC1` the value was greater than 25.2 µg/mL. With `CC(OCC(O)CN1CCCCC1CCO)c1ccc(Cl)cc1` (configuration not stated), the solubility (kinetic) was found to be 42.2 µg/mL (≈ 123 µM). For `Cc1ccc(-c2c[nH]c(=S)n2-c2ccccc2F)cc1` the value was 11.2 µg/mL (≈ 39.4 µM); for `O=[N+]([O-])c1sccc1CS(=O)(=O)c1ccccc1`, 20.6 µg/mL (≈ 72.7 µM); for `CCC1CCCCN1Cc1nc(Cc2ccccc2Cl)no1` (configuration not stated), 16.3 µg/mL (≈ 51 µM). For `Cn1c(N)c(C(=O)COC(=O)C2CCCC2)c(=O)n(C)c1=O`, the solubility (kinetic) was greater than 46.4 µg/mL.

`Cc1cccc(NC(=O)c2cccc(N3C(=O)C4C5C=CC(C6CC56)C4C3=O)c2)c1` (configuration not stated): the solubility (kinetic) was 1.5 µg/mL (≈ 3.76 µM). In turn, `COC(=O)c1cc(OC)c(OC)cc1NC(=O)Nc1ccccc1F` returned a kinetic solubility of 2.4 µg/mL (≈ 6.89 µM). On to `O=C(O)C1C2CCC(C2)C1C(=O)NCCc1ccc(F)cc1` (configuration not stated), for which the solubility (kinetic) was greater than 45.8 µg/mL. On to `O=C(CS(=O)(=O)c1ccccc1)NCc1ccc(Cl)cc1`, for which the kinetic solubility came out at 2.7 µg/mL (≈ 8.34 µM). For `CC(=O)Cc1nsc(Nc2ccc(F)cc2)n1` the value was 33.2 µg/mL (≈ 132 µM). For `COC(=O)CSC(=S)N1CCCC(C)C1` (configuration not stated) the value was greater than 37.1 µg/mL.

As for `O=C(O)CC1(CC(=O)NCc2ccc(C(F)(F)F)cc2)CCCCC1`, the kinetic solubility is greater than 53.6 µg/mL. On to `Cc1csc2c(NC3CCN(Cc4ccccc4)CC3)ncnc12`, for which the solubility (kinetic) worked out at 41.5 µg/mL (≈ 123 µM). `CCCC(=O)Nc1ccc2c(c1)nc(CCNC(=O)c1ccco1)n2C` had a solubility (kinetic) greater than 53.2 µg/mL. The compound `CC(=O)N1CCOCCOCCOCC1` gave a kinetic solubility greater than 32.6 µg/mL. For `CC(OC(=O)/C=C/c1cccs1)C(=O)NC1CCCCC1C` (configuration not stated) the value was 4.9 µg/mL (≈ 15.2 µM); for `COc1ccc(C(=O)CSc2ncnc3nc[nH]c23)cc1`, 8 µg/mL (≈ 26.6 µM); for `Cc1cc(C)c2sc(C)[n+](CCCS(=O)(=O)[O-])c2c1`, 38.8 µg/mL (≈ 130 µM). Then `Cc1nc2ccccn2c1-c1ccnc(=S)[nH]1`, with 31.8 µg/mL (≈ 131 µM). Then `CCOc1ccc2[nH]c(C)c(CN3CCCCCC3)c(=O)c2c1`, with greater than 47.2 µg/mL. Regarding `Cc1ccc(S(=O)(=O)N2CC(=O)NC(=O)C2)cc1`, the solubility (kinetic) was greater than 40.2 µg/mL. For `CC(C)N1CCN(Cc2nc3c(s2)CCCC3)CC1CCO` (configuration not stated) the value was 41.4 µg/mL (≈ 128 µM); for `Cc1ccc(-c2nc(NCCN(C)C)c3ccccc3n2)cc1`, greater than 46 µg/mL.

The values above are taken from PubChem BioAssay AID1996.
